# Assay results from patent publication US9932300B2, “N,N′-diarylurea compounds and N,N′-diarylthiourea compounds as inhibitors of translation initiation” (President and Fellows of Harvard College, priority 2009, dated 2018).
# “And” between values parts separate entries of the source, which are not always exact repeats. Equal entries are not always repeated.
# Test system: eIF2-GTP-Met-tRNAi ternary complex
# Test: Ternary complex assay (dual luciferase, firefly/renilla ratio) in stable KLN-tTA/pBISA-DL(ATF-4) cells; HTS and hit confirmation
# Assay type: cell-based, mouse
# Parameters: Activity 10 uM / Activity 2.5 uM / Activity 5 uM: unit not given here
# Conditions: confirmed hits of the screen (Table 5); for Activity 2.5 uM: compound at 2.5 uM; for Activity 10 uM: compound at 10 uM; for Activity 5 uM: compound at 5 uM
Compound,Activity 2.5 uM,Activity 10 uM,Activity 5 uM
[C-]#[O+].[C-]#[O+].[C-]#[O+].[C-]#[O+].[C-]#[O+].[CH3][Sn]([Cl])[c]1ccccc1.[Mn] [Compound 319699],0.29,3.62,
S=c1nccc[nH]1.[Pd] [Compound 321197],,5.0845,5.014
S=c1nccc[nH]1.[Pt] [Compound 321198],,9.062,8.313
COc1ccc(CCN2C(=O)C(=O)N(c3ccc(Cl)c(Cl)c3)C2=O)cc1OC [Compound 323938],0.99,5.53,
CCCCCC(CN(C)C)C(=O)CC(SCC)c1ccc(Cl)c(Cl)c1 (stereo not shown) [Compound 326123],0.47,12.9,
c1ccc(Nc2nnc(-c3ccc4c(c3)OCO4)o2)cc1 [Compound 326181],,7.027,5.584
CSC(=Nc1nc2ccc([N+](=O)[O-])cc2s1)SC [Compound 327371],,22.247,13.29
O=[N+]([O-])c1cccnc1S(=O)(=O)c1ccccn1 [Compound 327414],,6.977,3.793
CN(C)c1ccc(NC(=O)c2ccccc2O)cc1 [Compound 328479],,7.342,7.502
Cc1cccc(/C=N/Nc2ccc3ccccc3n2)n1 [Compound 332423],,5.4265,4.287
Cc1cccc(/C=N/Nc2cc(C)c3ccccc3n2)n1 [Compound 332426],2.37,3.15,
C/C(=N\NC(=S)N1CCSCC1)c1ccccn1 [Compound 332543],,5.182,4.083
O=C1C(Cl)=C(Nc2nccs2)C(=O)c2ccccc21 [Compound 337757],,5.978,6.205
N#C/C(=C/C=C/c1ccccc1)c1ccccc1 [Compound 338119],,5.6885,3.435
Cc1ccc(/C=C/c2ccc([N+](=O)[O-])cc2)cc1 [Compound 338462],,6.4125,4.54
COc1ccc2c(Cc3ccccc3)c3[n+](cc2c1OC)CCc1cc2c(cc1-3)OCO2.[Br-] [Compound 338631],1.12,3.39,
O=C(CC(c1cccnc1)C(C(=O)c1ccc(Cl)cc1)C(CC(=O)c1ccc(Cl)cc1)c1cccnc1)c1ccc(Cl)cc1 (stereo not shown) [Compound 339119],1.01,4.42,
C1=C(c2ccccc2)OC(c2ccccc2)=C(c2ccccc2)[P+]1(c1ccccc1)c1ccccc1.[Br-] [Compound 339567],1.94,11.94,
Cc1ccc(Sc2ccc3ccccc3n2)cc1 [Compound 340215],2.4,3.11,
CN1/C(=C/C=C/C=C/C2=[N+](C)c3ccccc3C2(C)C)C(C)(C)c2ccccc21.[I-] [Compound 340302],3.29,4.54,
COc1ccc(N=C(C)C2C(=O)c3ccccc3C2=O)cc1 [Compound 343385],,8.3265,11.2

Compound,Activity 2.5 uM,Activity 10 uM,Activity 5 uM
CC(=Nc1ccc(F)cc1)C1C(=O)c2ccccc2C1=O [Compound 343386],,5.4775,4.235
COc1cccc(N=C(C)C2C(=O)c3ccccc3C2=O)c1 [Compound 343387],2.32,3.33,
O=C(NCC(=O)N1CCCC1)N/N=C/c1ccccc1O [Compound 343979],,3.1255,2.571
CC(C)[N+](=C1O[B-](c2ccccc2)(c2ccccc2)O[B-]1(c1ccccc1)[C+]1CCCCC1)C(C)C (stereo not shown) [Compound 344506],0.69,5.08,
Cc1nc2cc3c(cc2n2cccc12)oc1ccccc13 [Compound 346212],,5.7595,5.376
Nc1cc2c(cc1-n1cccc1)oc1ccccc12 [Compound 347204],,6.6455,4.246
Clc1nc2cc3c(cc2n2cccc12)oc1ccccc13 [Compound 347816],,3.5245,3.143
Br.CN1CCC2(C)CC(Br)(Cc3ccccc32)C1Cl (stereo not shown) [Compound 349125],0.47,13.75,
[Cl][Hg][Cl] [Compound 353255],3.3,,
C/C(=N\NC(=S)Nc1nccs1)c1ccccn1 [Compound 354087],2.65,10.14,
O=C(Nc1nc2ccsc2s1)c1ccccc1 [Compound 354215],3.08,4.14,
c1ccc(-c2cnn3c(-c4ccccc4)cnnc23)cc1 [Compound 355167],3.09,4.17,
[Cl][Sn]([CH2][Sn]([Cl])([c]1ccccc1)[c]1ccccc1)([c]1ccccc1)[c]1ccccc1 [Compound 356110],,3.9,2.4
[Br][Sn]([Br])([CH2][Sn]([Br])([c]1ccccc1)[c]1ccccc1)[c]1ccccc1 [Compound 356111],,3.2,4.4
COc1ccc2nc3cc(Cl)ccc3c(NCCC3CCCN4CCCCC34)c2c1 (stereo not shown) [Compound 359827],0.61,6.27,
CSc1ncnc2c(C3OC(COC(C)=O)C(OC(C)=O)C3OC(C)=O)[nH]nc12 (stereo not shown) [Compound 360648],1.88,3.85,
CC(C)(C)c1cc(C(O)(C(F)(F)F)C(F)(F)F)c(Cl)c(C(O)(C(F)(F)F)C(F)(F)F)c1 [Compound 361407],0.62,3.7,
c1cc[c]([Ge]([O][Ge]([c]2ccccc2)[c]2ccccc2)[c]2ccccc2)cc1.c1cc[c]([Ge]([O][Ge]([c]2ccccc2)[c]2ccccc2)[c]2ccccc2)cc1 [Compound 361597],0.32,17.56,
O=C1c2c(-c3ccccc3)ccc(-c3ccccc3)c2C2(O)OC1(O)c1c(-c3ccccc3)ccc(-c3ccccc3)c1C2=O [Compound 361889],0.88,12.01,
COc1ccc(N=c2nc3n4c(c(Br)cc(Br)c4n2)NC(C(Br)(Br)Br)=N3)cc1 [Compound 366233],17.26,30.55,
CC(/C=C/c1cccc(C)c1)=N\NC(N)=O [Compound 366583],,3.134,2.409

Compound,Activity 2.5 uM,Activity 10 uM,Activity 5 uM
COc1ccc2c(n1)Sc1nc3ccccc3nc1N2 [Compound 367416],,7.3545,6.047
Br.C/C(=C\c1ccccc1)C(=O)C(CN(C)C)CN(C)C [Compound 367620],0.49,16.04,
Cc1ccc2nc(-c3ccccc3)c(N=O)n2c1 [Compound 369061],,6.3,5.137
O=C(Nc1nc2ccc(Cl)cc2[nH]1)c1ccccc1O [Compound 369110],1.84,6.46,
CC(=Nc1ccc(Cl)cc1N)c1c(O)cc(C)oc1=O [Compound 369331],,2.7605,2.533
CN(C(=[Se])[Se]C(=[Se])N(C)C1CCCCC1)C1CCCCC1 [Compound 369741],0.96,6.34,
c1csc(-c2[nH]nc3c2CCc2ccccc2-3)c1 [Compound 370463],4.76,5.98,
Cn1c2ccccc2c2nnc(N/N=C/c3ccccn3)nc21 [Compound 370589],11.87,39.54,
Cc1ccc2c(O)c3c(cc2c1O)C(=O)c1ccccc1C3=O [Compound 374924],2.1,6.35,
C/C(=N\NC(=S)N1CCN(C2CCCCCC2)CC1)c1ccccn1 [Compound 376265],2.72,7.26,
O=C(O)Cc1ccc(O)c(O)c1.[Pt].c1ccc([PH+](c2ccccc2)c2ccccc2)cc1.c1ccc([PH+](c2ccccc2)c2ccccc2)cc1 [Compound 377376],0.96,5.14,
CNCC(O)c1ccc(O)c(O)c1.[Pt].c1ccc([PH+](c2ccccc2)c2ccccc2)cc1.c1ccc([PH+](c2ccccc2)c2ccccc2)cc1 [Compound 377377],0.77,34.93,
CC(C)NCC(O)c1ccc(O)c(O)c1.[Pt].c1ccc([PH+](c2ccccc2)c2ccccc2)cc1.c1ccc([PH+](c2ccccc2)c2ccccc2)cc1 [Compound 377378],0.87,21.49,
Nc1ccccc1-c1nnc(-c2ccccc2)o1 [Compound 377831],2.19,3.79,
COc1cc2c(cc1C[N+](C)(C)CSc1ccccc1)-c1ccccc1CC2.[Br-] [Compound 378135],1.75,3.15,
Nc1ccccc1Nc1c([N+](=O)[O-])cc(C(F)(F)F)cc1[N+](=O)[O-] [Compound 379578],0.61,27.15,
CC1(C)CN=C(NN=C(C=Cc2ccc(C(F)(F)F)cc2)C=Cc2ccc(C(F)(F)F)cc2)NC1 [Compound 379665],1.08,35.03,
COC(=O)C1=C(C(=O)OC)C2(C)OC1c1ccccc12 (stereo not shown) [Compound 380207],0.47 and 0.3615,,
c1ccc(-c2noc(-c3ccccc3)n2)cc1 [Compound 400077],2.04,3.14,
CN(C)c1ccc(N=C2C=CC(=O)C=C2)cc1 [Compound 400538],0.57,6.8,
Cc1cc(N=Nc2ccccc2C)c(N)cc1N [Compound 400939],2.36,3.56,
